{
  "source": "patent US20090304797A1",
  "about": "“Process for the Preparation of Micronized Valsartan” (priority 2006, published 2009)",
  "test": "Particle size distribution",
  "format": "physicochemical",
  "key": {"[1]": {"conditions": "solid obtained by the process of the example"}, "[2]": {"conditions": "crystallized using ethyl acetate as taught in U.S. Pat. No. 5,399,578, after passing through 30 mesh sieve"}},
  "data": [
    {"molecule": "CCCCC(=O)N(Cc1ccc(-c2ccccc2-c2nnn[nH]2)cc1)[C@H](C(=O)O)C(C)C", "note": "[Example 1, Valsartan]", "values": [
      {"measurement": "Particle size distribution d10", "setting": "[1]", "value": 1.906, "unit": "μ"},
      {"measurement": "Particle size distribution d50", "setting": "[1]", "value": 4.134, "unit": "μ"},
      {"measurement": "Particle size distribution d90", "setting": "[1]", "value": 7.554, "unit": "μ"}
    ]},
    {"molecule": "CCCCC(=O)N(Cc1ccc(-c2ccccc2-c2nnn[nH]2)cc1)[C@H](C(=O)O)C(C)C", "note": "[Example 2, Valsartan]", "values": [
      {"measurement": "Particle size distribution d10", "setting": "[1]", "value": 1.686, "unit": "μ"},
      {"measurement": "Particle size distribution d50", "setting": "[1]", "value": 4.420, "unit": "μ"},
      {"measurement": "Particle size distribution d90", "setting": "[1]", "value": 8.684, "unit": "μ"}
    ]},
    {"molecule": "CCCCC(=O)N(Cc1ccc(-c2ccccc2-c2nnn[nH]2)cc1)[C@H](C(=O)O)C(C)C", "note": "[Example 3, Valsartan]", "values": [
      {"measurement": "Particle size distribution d10", "setting": "[1]", "value": 1.5421, "unit": "μ"},
      {"measurement": "Particle size distribution d50", "setting": "[1]", "value": 3.850, "unit": "μ"},
      {"measurement": "Particle size distribution d90", "setting": "[1]", "value": 7.869, "unit": "μ"}
    ]},
    {"molecule": "CCCCC(=O)N(Cc1ccc(-c2ccccc2-c2nnn[nH]2)cc1)[C@H](C(=O)O)C(C)C", "note": "[Example 4, Valsartan]", "values": [
      {"measurement": "Particle size distribution d10", "setting": "[1]", "value": 2.011, "unit": "μ"},
      {"measurement": "Particle size distribution d50", "setting": "[1]", "value": 4.636, "unit": "μ"},
      {"measurement": "Particle size distribution d90", "setting": "[1]", "value": 8.611, "unit": "μ"}
    ]},
    {"molecule": "CCCCC(=O)N(Cc1ccc(-c2ccccc2-c2nnn[nH]2)cc1)[C@H](C(=O)O)C(C)C", "note": "[Example 5 A, Valsartan]", "values": [
      {"measurement": "Particle size distribution d10", "setting": "[1]", "value": 1.869, "unit": "μ"},
      {"measurement": "Particle size distribution d50", "setting": "[1]", "value": 18.401, "unit": "μ"},
      {"measurement": "Particle size distribution d90", "setting": "[1]", "value": 202, "unit": "μ"}
    ]},
    {"molecule": "CCCCC(=O)N(Cc1ccc(-c2ccccc2-c2nnn[nH]2)cc1)[C@H](C(=O)O)C(C)C", "note": "[Example 5 B, Valsartan]", "values": [
      {"measurement": "Particle size distribution d10", "setting": "[1]", "value": 0.71, "unit": "μ"},
      {"measurement": "Particle size distribution d50", "setting": "[1]", "value": 2.687, "unit": "μ"},
      {"measurement": "Particle size distribution d90", "setting": "[1]", "value": 8.42, "unit": "μ"}
    ]},
    {"molecule": "CCCCC(=O)N(Cc1ccc(-c2ccccc2-c2nnn[nH]2)cc1)[C@H](C(=O)O)C(C)C", "note": "[Valsartan, N-(1-Oxopentyl)-N-[[2′-(1H-tetrazol-5-yl)[1,1′-biphenyl]-4-yl]methyl]-L-valine]", "values": [
      {"measurement": "Particle size distribution d10", "setting": "[2]", "value": 5.039, "unit": "μ"},
      {"measurement": "Particle size distribution d50", "setting": "[2]", "value": 77.29, "unit": "μ"},
      {"measurement": "Particle size distribution d90", "setting": "[2]", "value": 383.55, "unit": "μ"}
    ]}
  ]
}
